Several values for one entry are separate records, joined by “and”; a condition that tells them apart may be missing. Identical values can stand only once.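 96-well plates; 48 h exposure; 5 concentrations. Endpoints by linear interpolation between flanking doses. Not reached: highest tested concentration assigned. GI50 = concentration required for 50% inhibition of growth. TGI: total growth inhibition.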
Columns and labels:
Assay in all cases: growth of human tumour cells (NCI), 48 h
KM12 colon = tested on: KM12 colon
HOP-18 NSCLC = tested on: HOP-18 NSCLC
LXFL 529 NSCLC = tested on: LXFL 529 NSCLC
KM20L2 colon = tested on: KM20L2 colon
HL-60(TB) leukemia = tested on: HL-60(TB) leukemia
SNB-75 CNS = tested on: SNB-75 CNS
SK-MEL-2 melanoma = tested on: SK-MEL-2 melanoma
MDA-MB-435 = tested on: MDA-MB-435
UO-31 renal = tested on: UO-31 renal
SN12C renal = tested on: SN12C renal

**Q.** Which results are given for `Cn1c2c(c3ccccc31)CCN(CCCCN1CCN(c3ccccc3)CC1)C2=O`?
**A.** TGI (KM12 colon): > 89.9 µM; TGI (HOP-18 NSCLC): > 31.6 µM; TGI (LXFL 529 NSCLC): > 100 µM; TGI (KM20L2 colon): 33.6 µM; TGI (HL-60(TB) leukemia): > 81.3 µM; TGI (SNB-75 CNS): > 100 µM; TGI (SK-MEL-2 melanoma): > 77.6 µM; TGI (MDA-MB-435): 36.7 µM; TGI (UO-31 renal): > 80.9 µM; TGI (SN12C renal): > 91.4 µM

**Q.** `Cn1c(=O)nc2n(-c3ccc(Cl)cc3)c3cc(Cl)ccc3nc-2c1=O` was tested. Which TGI (KM12 colon) did it give?
**A.** Its TGI is 25.6 µM.

**Q.** What about the TGI (HOP-18 NSCLC) of the same compound?
**A.** Its TGI is 28.3 µM.

**Q.** And the TGI (LXFL 529 NSCLC)?
**A.** Its TGI is 3.13 µM.

**Q.** And the TGI (KM20L2 colon)?
**A.** The TGI was 35.7 µM.

**Q.** What about the TGI (HL-60(TB) leukemia) of the same compound?
**A.** Its TGI is 5.66 µM.

**Q.** What about the TGI (SNB-75 CNS) of the same compound?
**A.** Its TGI is 14.8 µM.

**Q.** What about the TGI (SK-MEL-2 melanoma) of the same compound?
**A.** Its TGI is 5.63 µM.

**Q.** What about the TGI (MDA-MB-435) of the same compound?
**A.** Its TGI is 3.14 µM.

**Q.** What about the TGI (UO-31 renal) of the same compound?
**A.** The TGI was 24.2 µM.

**Q.** What about the TGI (SN12C renal) of the same compound?
**A.** Its TGI is 13.9 µM.

**Q.** For `COc1cc(/C=C2\CCC/C(=C\c3ccc(O)c(OC)c3)C2=O)ccc1O`, which GI50 (KM12 colon) is on record?
**A.** The GI50 was 1250 nM.

**Q.** And the TGI (KM12 colon)?
**A.** Its TGI is 5.83 µM and 2.62 µM.

**Q.** What about the TGI (HOP-18 NSCLC) of the same compound?
**A.** The TGI was 9.21 µM.

**Q.** And the TGI (LXFL 529 NSCLC)?
**A.** The TGI was 4.22 µM.

**Q.** What about the TGI (KM20L2 colon) of the same compound?
**A.** Its TGI is 28.7 µM.

**Q.** And the GI50 (HL-60(TB) leukemia)?
**A.** Its GI50 is 397 nM.

**Q.** And the TGI (HL-60(TB) leukemia)?
**A.** Its TGI is 10.7 µM and 10.8 µM.

**Q.** And the GI50 (SNB-75 CNS)?
**A.** The GI50 was 3640 nM and 1990 nM.

**Q.** And the TGI (SNB-75 CNS)?
**A.** The TGI was 12.7 µM and 13.7 µM.

**Q.** And the GI50 (SK-MEL-2 melanoma)?
**A.** Its GI50 is 1960 nM.

**Q.** What about the TGI (SK-MEL-2 melanoma) of the same compound?
**A.** Its TGI is 12.7 µM and 4.94 µM.

**Q.** And the GI50 (MDA-MB-435)?
**A.** The GI50 was 1420 nM.

**Q.** What about the GI50 (UO-31 renal) of the same compound?
**A.** Its GI50 is 1170 nM.

**Q.** What about the TGI (UO-31 renal) of the same compound?
**A.** Its TGI is 4.82 µM and 2.83 µM.

**Q.** And the GI50 (SN12C renal)?
**A.** The GI50 was 1870 nM.

**Q.** And the TGI (SN12C renal)?
**A.** Its TGI is 6.33 µM and 5.01 µM.

From PubChem BioAssay (NCI)
